Structures can show the parent of a compound that is named as a salt.
Experiments:
[1] = one reference per drug; cited from earlier work
[2] = target: T1, Human GABAA receptor (α1β2γ2s) expressed in HEK293 cells (Homo sapiens, UniProt P14867+P18507+P47870); assay: Conventional whole-cell patch clamp: GABAA receptor activation and CSF-mediated potentiation; type: cell-based; details: for Effect on GABAA receptor activation (in words): conventional single electrode patch clamp
T1 construct: expressed in transfected cells; host or cells: HEK293
Method: Human GABAA receptor cDNAs (α1β2γ2s) were subcloned into the pcDNA 3.1 expression vector, and they were subsequently transfected into HEK293 cells using standard methods. Forty-eight hours later, cells were exposed to individual GABAARNAM solutions with simultaneous exposure to GABA. GABAARNAMs were obtained from Sigma-Aldrich, and the solutions were prepared with a saline solution to 1–300 µM concentrations. […] Stable cell lines were generated and handled as previously described.
Patch pipettes were fabricated from thin-walled borosilicate glass (TW150F-4, World Precision Instruments, Inc., Sarasota, FL, USA) using a horizontal puller (P-97, Sutter Instrument Co., Novato, CA, USA). The resistances of the patch pipettes were 2–5 megaohms when filled with an intracellular solution containing 120 mM KCl, 2 mM MgCl2, 10 mM EGTA, and 10 mM HEPES, adjusted to pH 7.2 with NaOH. Cells were perfused continuously with an extracellular solution containing 160 mM NaCl, 10 mM HEPES, 6 mM D-glucose, 3 mM KCl, 1 mM MgCl2, and 1.5 mM CaCl2, adjusted to pH 7.4. Two 10-channel infusion pumps (KD Scientific) and a rapid solution exchanger (Biologic) were used to apply extracellular saline to the cells. […] The solution changer was driven by protocols written in pClamp 9.2 (Molecular Devices).

[3] = target: α1β2γ2L GABAA receptors stably expressed in HEK293 cells (Mus musculus, UniProt P22723+P62812+P63137); type: cell-based; details: for nH: Hill coefficient of modulator concentration-response; for Effect on GABAA receptor activation (in words): microfluidic patch clamp, concentrations up to 300 μM
Method: Extracellular saline solutions contained 140 mM NaCl, 5 mM KCl, 2 mM CaCl2, 1 mM MgCl2, 10 mM HEPES, and 10 mM D-glucose. Both salines were adjusted to pH 7.4 (330 mOsm) and were 0.2 µm filter sterilized. The composition was based on solutions designed for long duration HEK293 biophysics studies. HEK293 cells stably expressing mouse α1β2γ2L receptors were dissociated with detachin (Genlantis, San Diego, CA, USA), resuspended in extracellular saline (2.5 × 10^6 cells/mL), and agitated prior to loading into 384-well Fluxion ensemble plates.
Cells were patched using an Ionflux Mercury microfluidic automated patch clamp system (Fluxion Biosciences, Oakland, CA, USA). Each experiment ran on a disposable 384-well plate with microfluidic channels printed into an ionized polydimethylsiloxane base. Each plate was divided into 4 zones, each containing 8 repeats of the same experimental pattern (see Figure 1). Each pattern comprised 8 compound wells containing the ligands/modulator combinations to be used in the experiment. Connected to these by a manifold perfusion chamber was an inlet well containing the cell suspension, an outlet well for discarded perfusate, and 2 trapping wells. Both trapping wells contained intracellular solution and were connected to the manifold via 20 1 µm diameter holes for cell attachment (each pattern can patch up to 40 cells simultaneously). Intracellular electrodes were placed in the 2 trapping wells, and the reference electrode in the waste well. Electrodes were connected to 64 conventional low-noise resistive feedback amplifiers. After cleaning, the plates were loaded with up to 100 µL of experimental solution or cell suspension per well. Each plate was loaded into the Fluxion Ionflux Mercury device, and a bespoke script primed the experimental fluidic channels and manifold, and the traps and sealed cells for voltage clamp measurements, and finally, controlled solution application/concentration jumps prior to saving the data collected. Agonist applications were repeated in triplicate (see Supplemental Figure S1). The current data were recorded at 10 kHz and stored for offline analysis. MATLAB scripts were used to measure the baseline leak current and peak response for each episode of data (typically 2000–4000/experiment). The matrix of peaks was expressed as a percentage of the response to a reference concentration. For the agonist concentration–response experiments, this was the maximum response. For the modulator concentration–response experiments, this was the EC10 agonist response.

[4] = design: method as in PMID 10384859; details: cited from earlier work

T1 sequence (P14867 28-456): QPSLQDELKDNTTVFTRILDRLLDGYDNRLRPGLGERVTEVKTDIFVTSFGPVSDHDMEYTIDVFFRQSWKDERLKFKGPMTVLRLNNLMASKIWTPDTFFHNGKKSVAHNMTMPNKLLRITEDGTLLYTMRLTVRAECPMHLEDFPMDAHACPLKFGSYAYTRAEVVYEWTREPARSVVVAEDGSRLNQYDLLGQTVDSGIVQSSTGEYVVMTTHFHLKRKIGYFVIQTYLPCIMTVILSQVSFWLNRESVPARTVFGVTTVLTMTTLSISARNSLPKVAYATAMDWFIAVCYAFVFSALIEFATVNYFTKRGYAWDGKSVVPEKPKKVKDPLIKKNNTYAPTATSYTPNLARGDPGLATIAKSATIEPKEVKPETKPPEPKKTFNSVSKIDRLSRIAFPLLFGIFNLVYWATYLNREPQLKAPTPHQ
T1 sequence (P47870 25-512 limits assumed): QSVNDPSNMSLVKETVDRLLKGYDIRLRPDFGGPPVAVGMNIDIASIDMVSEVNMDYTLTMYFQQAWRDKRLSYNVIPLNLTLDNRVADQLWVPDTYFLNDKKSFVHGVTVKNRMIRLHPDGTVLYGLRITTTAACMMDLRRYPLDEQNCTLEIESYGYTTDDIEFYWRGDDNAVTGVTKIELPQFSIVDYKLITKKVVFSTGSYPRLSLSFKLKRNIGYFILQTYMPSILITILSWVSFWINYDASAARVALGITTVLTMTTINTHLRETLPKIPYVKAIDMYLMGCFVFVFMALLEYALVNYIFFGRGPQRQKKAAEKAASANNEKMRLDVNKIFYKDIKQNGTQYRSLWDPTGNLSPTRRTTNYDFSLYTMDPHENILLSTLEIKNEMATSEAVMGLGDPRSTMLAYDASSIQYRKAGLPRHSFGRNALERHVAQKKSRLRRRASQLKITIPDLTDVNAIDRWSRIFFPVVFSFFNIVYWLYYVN
T1 sequence (P18507 40-467 isoform P18507-1 limits assumed): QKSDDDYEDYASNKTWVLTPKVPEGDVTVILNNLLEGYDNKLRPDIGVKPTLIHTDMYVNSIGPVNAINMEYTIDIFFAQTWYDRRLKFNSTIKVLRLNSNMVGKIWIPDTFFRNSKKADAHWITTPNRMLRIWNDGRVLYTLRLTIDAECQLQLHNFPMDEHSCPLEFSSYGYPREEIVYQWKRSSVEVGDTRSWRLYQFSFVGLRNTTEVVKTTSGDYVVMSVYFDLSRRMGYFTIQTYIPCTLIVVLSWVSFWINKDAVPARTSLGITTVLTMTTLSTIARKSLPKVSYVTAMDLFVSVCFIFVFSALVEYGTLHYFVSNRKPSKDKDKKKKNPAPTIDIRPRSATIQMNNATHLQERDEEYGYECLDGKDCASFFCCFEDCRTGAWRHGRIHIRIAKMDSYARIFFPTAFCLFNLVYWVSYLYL
Chain of α1β2γ2L GABAA receptors stably expressed in HEK293 cells (P63137 26-512): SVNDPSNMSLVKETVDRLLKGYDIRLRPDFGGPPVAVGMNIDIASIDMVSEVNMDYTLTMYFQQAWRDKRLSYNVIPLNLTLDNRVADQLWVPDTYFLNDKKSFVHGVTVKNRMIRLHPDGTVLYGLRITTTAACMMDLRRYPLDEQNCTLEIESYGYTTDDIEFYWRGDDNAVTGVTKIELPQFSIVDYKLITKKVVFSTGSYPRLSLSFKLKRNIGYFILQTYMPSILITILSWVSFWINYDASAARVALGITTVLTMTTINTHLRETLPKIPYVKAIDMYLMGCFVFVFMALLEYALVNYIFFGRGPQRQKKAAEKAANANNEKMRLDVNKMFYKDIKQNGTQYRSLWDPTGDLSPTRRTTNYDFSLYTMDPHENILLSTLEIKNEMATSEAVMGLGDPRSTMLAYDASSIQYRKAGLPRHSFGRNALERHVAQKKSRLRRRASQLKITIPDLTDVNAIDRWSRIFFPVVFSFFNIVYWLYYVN
Chain of α1β2γ2L GABAA receptors stably expressed in HEK293 cells (P22723 39-474): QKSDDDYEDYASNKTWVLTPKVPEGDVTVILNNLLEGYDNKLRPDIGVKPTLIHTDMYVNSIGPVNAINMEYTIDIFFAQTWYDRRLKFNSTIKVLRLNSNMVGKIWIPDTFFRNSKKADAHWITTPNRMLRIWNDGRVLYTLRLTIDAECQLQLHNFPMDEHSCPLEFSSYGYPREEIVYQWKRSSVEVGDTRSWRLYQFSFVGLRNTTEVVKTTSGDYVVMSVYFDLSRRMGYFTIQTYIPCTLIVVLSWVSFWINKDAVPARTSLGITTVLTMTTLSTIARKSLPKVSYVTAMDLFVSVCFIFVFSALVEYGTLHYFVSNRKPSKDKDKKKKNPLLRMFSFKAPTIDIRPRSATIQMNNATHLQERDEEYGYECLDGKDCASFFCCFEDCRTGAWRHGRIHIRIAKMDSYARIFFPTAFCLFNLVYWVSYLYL
Chain of α1β2γ2L GABAA receptors stably expressed in HEK293 cells (P62812 28-455): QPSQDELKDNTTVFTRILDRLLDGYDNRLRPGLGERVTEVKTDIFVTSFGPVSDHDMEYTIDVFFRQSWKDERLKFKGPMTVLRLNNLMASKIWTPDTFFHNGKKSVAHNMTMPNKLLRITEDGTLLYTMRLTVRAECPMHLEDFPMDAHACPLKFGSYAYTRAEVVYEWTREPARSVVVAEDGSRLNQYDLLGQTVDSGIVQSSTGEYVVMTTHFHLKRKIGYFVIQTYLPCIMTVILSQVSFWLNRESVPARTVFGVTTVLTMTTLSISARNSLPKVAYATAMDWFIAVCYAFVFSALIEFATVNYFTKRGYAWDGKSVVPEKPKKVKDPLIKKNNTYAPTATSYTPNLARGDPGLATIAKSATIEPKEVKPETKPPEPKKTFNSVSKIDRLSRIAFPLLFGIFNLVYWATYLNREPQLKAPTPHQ

| Compound | [CNS] concentration of drug in the CNS [1] | nH [3] | Effect on GABAA receptor activation (in words) [3] | further results |
| --- | --- | --- | --- | --- |
| CCN(CC)CCCC(C)Nc1ccnc2cc(Cl)ccc12 (stereo not shown) [Chloroquine] | 1.60 [36] μM |  |  |  |
| CC[C@H]1OC(=O)[C@H](C)[C@@H](O[C@H]2C[C@@](C)(OC)[C@@H](O)[C@H](C)O2)[C@H](C)[C@@H](O[C@@H]2O[C@H](C)C[C@H](N(C)C)[C@H]2O)[C@](C)(OC)C[C@@H](C)C(=O)[C@H](C)[C@@H](O)[C@]1(C)O [Clarithromycin, clarithromycin] | 10 [37] μM | 1 | reversibly inhibited GABAA receptor activation in a concentration-dependent manner | Reversal of CSF-induced potentiation of GABA receptor function ([2]; 300 μM clarithromycin, currents activated by 10 μM GABA (EC10), CSF from hypersomnolent patients, n = 6 cells): 71 ± 13%; Intrinsic efficacy at GABAA receptor (in words) ([2]; clarithromycin applied without GABA): no intrinsic efficacy; Effect on GABAA receptor activation (in words) [2]: reversibly inhibits receptor activation; Effect of clarithromycin concentration on GABA EC50 (in words) ([3]; GABA concentration–function relationships in 0–300 μM clarithromycin): GABA EC50 continued to increase |
| O=C(O[C@@H]1Cc2c(O)cc(O)cc2O[C@@H]1c1cc(O)c(O)c(O)c1)c1cc(O)c(O)c(O)c1 [EGCG, (-)-Epigallocatechin Gallate] | 0.18 [35] μM | 1.1 | modest inhibition of GABA activation |  |
| CC[C@H]1OC(=O)[C@H](C)[C@@H](O[C@H]2C[C@@](C)(OC)[C@@H](O)[C@H](C)O2)[C@H](C)[C@@H](O[C@@H]2O[C@H](C)C[C@H](N(C)C)[C@H]2O)[C@](C)(O)C[C@@H](C)C(=O)[C@H](C)[C@@H](O)[C@]1(C)O [Erythromycin] | 0.68 [38] μM |  |  |  |
| NCCCC(=O)O [GABA] |  |  |  | Response to GABA as % of the maximal response ([3]; 100 µM GABA): > 90% |
| CCN(CCO)CCCC(C)Nc1ccnc2cc(Cl)ccc12 (stereo not shown) [Hydroxychloroquine, Hydroxychloroquine sulfate] | 50 [39] μM | 1.4 | modest and incomplete block of receptor activation |  |
| Cc1ncc([N+](=O)[O-])n1CCO [Metronidazole] |  | 0.8 | modest inhibition of GABA activation | Bioavailability ([4]; administered orally): > 90%; CNS concentration as % of plasma concentrations [4]: 60–100% |
| CN(C)c1ccc(O)c2c1C[C@H]1C[C@H]3[C@H](N(C)C)C(O)=C(C(N)=O)C(=O)[C@@]3(O)C(O)=C1C2=O [Minocycline] | 1.1 [41] μM |  | irreversible blocker |  |
| CC1COc2c(N3CCN(C)CC3)c(F)cc3c(=O)c(C(=O)O)cn1c23 (stereo not shown) [Ofloxacin] | 5.6 [42] μM |  | modest and incomplete block of receptor activation | Effect on GABAA receptor activation (in words) [2]: modest and incomplete block of receptor activation |
| C1CCc2nnnn2CC1 [pentylenetetrazole, Pentylenetetrazol] | 330 [43] μM | 1.3 | blocked GABAAR activation in a concentration-dependent manner |  |

Reference: paper PMC9953295, “Commonly Used Therapeutics Associated with Changes in Arousal Inhibit GABAAR Activation” (Biomolecules, 2023)
